Assay results reported in a melting point compilation (Tetko et al.; mined from patent text by program, amines drawn as free bases though some values may be those of a salt).

Row | Compound | melting point [°C]
1 | CC(=O)c1cccc(C=CC(=O)N2CCc3c([nH]c4ccccc34)C2c2ccc3c(c2)OCO3)c1 (stereo unspecified) | 191
2 | Oc1ccc2c(ccc3ccccc32)c1 | 165 to 167
3 | CCC(OC)c1cccc2nc3n(c12)CCCN3c1ccc(Cl)cc1Cl (stereo unspecified) | 151 to 153
4 | CCOc1cc2c(Nc3cc(OC)c(Cl)cc3Cl)c(C#N)cnc2cc1NC(C)=O | 245 to 248
5 | CC(=O)c1ccc(Cc2c(Cl)cc(NN=Cc3ccccc3)cc2Cl)cc1 | 137 to 139
6 | COC(=O)CC(C(=O)c1ccc(SC)cc1)c1ccccc1 (stereo unspecified) | 82.4 to 83
7 | COc1ccc(C(=O)Nc2ccccc2)cc1NS(=O)(=O)c1cn(C)cn1 | 250 to 252
8 | COc1ccc2c(c1)c1c3c(c(-c4c(Cl)cccc4Cl)cc1n2CCC(=O)O)C(=O)NC3=O | 203 to 209
9 | CC(C)c1nc2ccccc2cc1S(=O)(=O)c1ccc(O)cc1 | 185
10 | Cc1cccc(N2CCN(CCc3c(C)nc4ccccn4c3=O)CC2)c1 | 95.5 to 96.5
11 | O=c1cnc(-c2cc(-c3ccsc3)cc(-c3ccsc3)c2)nn1CC(F)(F)F | 189 to 191
12 | Cc1c(-c2cccn2C)c(N2CC[C@H](N(C)C)C2)c2oc(C3CC3)nc2c1C#N | 127 to 128
13 | Cc1nc2cc(NC(=O)c3cc4cccnc4n3-c3ccncc3)ccc2s1 | 236 to 238
14 | CCOC(=O)COc1ccc2[nH]ccc2c1 | 74 to 77
15 | COC(=O)c1cc(N)c(Cl)c(N)c1 | 110 to 120
16 | c1csc(-c2ccc(-c3cccs3)nc2)c1 | 150
17 | CNc1nc(-c2ccc(SC)cc2)n(-c2ccc(C)c(C)c2)c(=O)c1C#N | 199 to 205
18 | CCn1c(Oc2cccc(NC(N)=O)c2)nnc1[C@@H](C)NS(=O)(=O)c1ccc(Cl)c(Cl)c1 | 137 to 138
19 | CS(=O)(=O)Nc1cc(OC[C@@H](O)CNC2CCN(c3ccc(C#N)cc3)CC2)ccc1O | 78 to 80
20 | CC(C)c1ccc(C2NCCc3c2[nH]c2ccccc32)cc1 (stereo unspecified) | 146
21 | COc1ccccc1-c1cn(N=Cc2ccccc2)c(N)n1 | 166 to 167
22 | O=C(Nc1nc(Cl)c(C(=O)NCc2ccccc2)s1)c1ccccc1 | 247 to 249
23 | CC(C)(Cc1ccc(F)cc1)NC(=O)Nc1ccccc1CCc1cc(C(C)(C)C)c(O)c(C(C)(C)C)c1 | 151
24 | COc1ccc(Br)cc1-c1cc(-c2ccc(Br)cc2)no1 | 153 to 154
25 | C=C1NC(=O)N(Cc2ccccc2)C1=N | 139 to 141
26 | CCc1cnc(N2CCC(c3ccc4oc(-c5ccc(S(C)(=O)=O)cc5F)nc4c3)CC2)nc1 | 190 to 194

Row | Compound | melting point [°C]
27 | N=C(c1ccccc1)C1CCN1C(c1ccccc1)c1ccccc1 (stereo unspecified) | 124 to 126
28 | COC(=O)c1ccccc1S(=O)(=O)NC(=O)Nc1cc(C)cc(C)n1 | 181 to 182
29 | Cc1c(-c2ccccc2)c(C2=CCNC2)c2oc(C3CC3)nc2c1C#N | 172 to 174
30 | CC(Cc1c[nH]c2ccccc12)(NC(=O)OC1C2CC3CC(C2)CC1C3)C(=O)NCC(CCC(=O)O)c1ccccc1 (stereo unspecified) | 117 to 122
31 | O=C(Nc1ccc(F)c(C(F)(F)F)c1)N1COc2cc(OCc3ccccc3)ccc21 | 144 to 146
32 | CCOC(=O)c1cnn(-c2c(Cl)cc(C(F)(F)F)cc2Cl)c1 | 57 to 59
33 | Cc1ccc(-c2[nH]c(-c3cccnc3)nc2C(=O)Nc2nccs2)cc1 | > 200
34 | Cn1c(=O)c2c(ncn2CC(O)CN2CCN(CCCS(=O)(=O)c3ccccc3)CC2)n(C)c1=O (stereo unspecified) | 168
35 | O=C1C(CCO)Oc2cc([N+](=O)[O-])ccc2N1Cc1ccccc1Cl (stereo unspecified) | 106 to 108
36 | CC1(C)Oc2ccc(C#N)cc2C(CC(=O)N2CCCCC2)C1O (stereo unspecified) | 160 to 161
37 | CN(C)CCOc1ccc(C#N)cn1 | 58
38 | [N-]=[N+]=NC(=O)c1cn(C2CCN(Cc3ccccc3)C2)nn1 (stereo unspecified) | 160
39 | CCc1ncnc(N[C@H]2CC[C@@H](C(C)(C)O)CC2)c1Cl | 75 to 76
40 | CC(C)(C)NC(=O)N1CCc2cc(S(=O)(=O)n3cc(-c4ccccc4)[nH]c3=O)ccc21 | 222 to 223
41 | Cc1ccc(Cl)c(Nc2ccccc2-c2n[nH]c(=S)o2)c1Cl | 257 to 259
42 | Cn1cc(C2CCN(CCCCNC(=O)c3ccc(-c4ccc(C(F)(F)F)cc4)cc3)CC2)c2ccccc21 | 205 to 206
43 | COc1ccc2c(cc(C)n2-c2ncnc3cc(Cl)ccc23)c1CC(=O)O | 110 to 112
44 | O=C1Nc2cccnc2N(C(=O)NCCN2CCCCC2CN2CCCC2)c2ccccc21 (stereo unspecified) | 198
45 | O=C(Nc1cccc2c1C(=O)c1c-2n[nH]c1-c1ccc(C(=O)N2CCCC2)s1)NN1CCOCC1 | > 300
46 | CC(C)(C)c1cc(SC(Sc2cc(C(C)(C)C)c(O)c(C(C)(C)C)c2)Sc2cc(C(C)(C)C)c(O)c(C(C)(C)C)c2)cc(C(C)(C)C)c1O | 217 to 220
47 | CCOC(=O)c1sc2ccc3c(c2c1Cl)O[C@@H](CO)CO3 | 165 to 166
48 | FC(F)(F)Oc1ccc(-c2coc3ccc(-c4nnc(S)o4)cc23)cc1 | 197 to 198
49 | CC(=O)N1c2ccccc2[C@H](Nc2ccccc2C(=O)O)C[C@@H]1C (relative stereo) | 122 to 123
50 | CC(=O)Nc1ccc(/C=C/c2cc(/C=C/c3ccc4cc[nH]c4c3)[nH]n2)cc1 | > 300
51 | COC(=O)c1ccc(COc2ccc3cc(-c4ccc(-c5ccccc5)[nH]4)ccc3c2)c(C(=O)OC)c1 | 203 to 205
52 | C=CC(=O)NCNC(=O)CCS(=O)(=O)Cl | 192

Row | Compound | melting point [°C]
53 | Cn1cc(C(=O)NCc2ccc(Cl)cc2)c(=O)c2cc(CO)ccc21 | 168 to 170
54 | N#CN1CCC(c2nn(-c3ccccc3)c3ccccc23)CC1 | 124 to 125
55 | NC(=O)Nc1nc2n(n1)CCc1ccccc1-2 | 210 to 212
56 | CC(C)Nc1cccnc1N1CCN(C(=O)c2ccc(C(=O)N3CCN(C4CCCC4)CC3)cc2)CC1 | 181 to 182
57 | CCOC(=O)C=Cc1c(OC)cncc1OC | 100 to 101
58 | Nc1nc(Cl)c2ncn([C@@H]3C[C@H](O)[C@@](O)(CO)C3)c2n1 | 217 to 219
59 | O=CNC1CCN(c2ncc3ncnc(Nc4ccc(F)c(Cl)c4)c3n2)CC1 | 201 to 203
60 | CCCC(C)(O)C(=O)Nc1ccnc(C(=O)OC)c1 (stereo unspecified) | 122
61 | C=C(C)CN1Cc2cc(Cl)cc3[nH]c(=S)n(c23)[C@@H](C)C1 | 171
62 | CNC(=O)n1sc(OC(C)C)nc1=O | 95
63 | N#Cc1ccc(C(=O)OC2CCN(Cc3ccccc3)CC2)cc1 | 110 to 111
64 | COc1cc(N)c(C(=O)N(C)C)cc1OC | 94 to 103
65 | C#CCN(c1c(Br)cc(Br)cc1Br)[N+](=O)[O-] | 58 to 58.5
66 | CCCCCCCCCCCCCCCCNc1ccc(C(=O)NS(=O)(=O)c2ccc([N+](=O)[O-])cc2)cc1 | 130 to 131
67 | CNC(=S)N1CCN=C1COc1cccc(C)c1C | 100
68 | CC(C)(C)n1ncc(C(N)=O)c1N | 193 to 195
69 | Cc1nc(C(O)(c2nc(C)c(C)s2)C(F)(F)F)sc1C | 122 to 124
70 | CNCCCn1c2ccc(O)cc2c2c3c(c(-c4ccccc4)cc21)C(=O)NC3=O | 265 to 268
71 | c1cnc2[nH]cc(CN3CCN(c4ccc5[nH]ccc5c4)CC3)c2c1 | 232 to 233
72 | CC1(C)C(=O)N(c2ccccc2)C(=S)N1c1ccc(OCc2ccccc2)cc1 | 208 to 210
73 | Cc1cc(C)cc(C(=O)c2c(C(C)C)c(=O)[nH]c(=O)n2CC2CCCC2)c1 | 167 to 168
74 | CCC1CS(=O)(=O)c2ccccc2C2(c3ccccc3)OC12 (stereo unspecified) | 185 to 186
75 | O=C(O)Cn1cc(Br)cnc1=O | 183 to 185
76 | O=[N+]([O-])c1cccnc1N1CCNCC1 | 79 to 82
77 | CCCCCCCCCCCCS(=O)(=O)c1cc2c(cc1S(=O)(=O)CCCCCCCCCCCC)C(=O)c1c(c(O)c3ccccc3c1O)C2=O | 173 to 175
78 | CC1=Nc2cc(C)c(C)cc2C(=O)C1 | 120 to 122

Row | Compound | melting point [°C]
79 | CCOC(=O)n1c(SCc2nccc(SCCN3CCOCC3)c2C)nc2ccccc21 | 145 to 147
80 | Cc1ccc(S(=O)(=O)NN)cc1 | 110
81 | CNC(=S)OCc1nc(C(C)C)c(Sc2cc(Cl)cc(Cl)c2)n1C | 119 to 121
82 | COP(=O)(Cc1cc(C)c(CP(=O)(OC)OC)cc1C)OC | 121 to 123
83 | NC(=O)NCCC(F)=C(F)F | 86 to 88
84 | Cn1cc(C2=C(C3CCCCC3)C(=O)NC2=O)c2ccccc21 | 224 to 225
85 | CN=C(NC#N)N1CCc2[nH]cnc2C1 | 240
86 | COc1ccc(-c2coc3ccc(-c4nnc(SCc5cccc(C#N)c5)o4)cc23)cc1 | 145 to 146
87 | CCN(CC)C(=CC(=O)OC)N1C(=O)C(=[N+]=[N-])c2ccccc21 | 175 to 177
88 | N#Cc1cnc(-c2ccccc2OCC2CC2)[nH]c1=O | 188 to 190
89 | CC(C)(C)OC(=O)NCC(O)CNC(=O)OC(C)(C)C | 92
90 | Nc1ccc(C(=O)N2Cc3ccccc3Cc3ccccc32)c(Cl)c1 | 158 to 161
91 | COC(=O)C(OC)(OC)C(=O)Nc1cc(Cl)cc(Cl)c1 | 160 to 164
92 | Cn1ccc(=O)c(O)c1CC(O)c1cccnc1 (stereo unspecified) | 215 to 220
93 | CC(C)n1nc(C(=O)C(=O)c2ccccc2)ccc1=O | 71 to 73
94 | FC(F)(F)c1ccc(C2=NNCC2c2ccccc2)cc1 (stereo unspecified) | 98 to 112
95 | CC12C=CC(=O)C(N=C=S)=C1C=CC1C2CCC2(C)C(=O)CCC12 (stereo unspecified) | 146 to 166
96 | O=c1[nH]c2cc(Cl)cc(Cl)c2c(=O)n1CCc1ccccc1 | 230 to 232
97 | CCCCCCC/C=C/C(=O)Nc1ccccc1 | 54 to 55
98 | N#CCCCSc1cccc(NC(N)=NCC(F)(F)F)n1 | 89 to 91
99 | O=C1C=C(Nc2ccc(F)cc2)CCN1 | 195 to 198
100 | CCCN(CCC)Cc1nc(-c2ncn3c2[C@@H]2CCN2C(=O)c2ccccc2-3)no1 | 208 to 210
101 | COc1ccc(Cc2ncc(CO)c3cc(OC)c(OC)cc23)cc1OC | 140 to 146
